What was measured:
[1] = test system: hCMEC/D3 cells; test: WST-1 cytotoxicity assay, hCMEC/D3; assay type: cell-based, human; details: 24 h incubation, highest concentration of range 0.5 to 250 μg/ml, related to pure medium
Experimental: (§1) hCMEC/D3 cells were cultivated using RPMI 1640 supplemented with 1% (v/v) non-essential amino acids, 1% ([…] (200 mM), 1% (v/v) gentamicin, 1% (v/v) sodium pyruvate (100 mM), 550 nM hydrocortisone, and 20% (v/v) FBS. Jurkat cells were cultivated using RPMI 1640 supplemented with 1% (v/v) of a mixture of penicillin (100 U/ml) and streptomycin (100 μg/ml), 1% ([…] (200 mM), 1% (v/v) gentamicin, and 10% (v/v) FBS. Both cell lines were stored in T75 cell culture flasks in an incubator at a temperature of 37° C. and 100% humidity at 5% CO2 atmosphere. The cells were split twice a week at a ratio of approximately 1:3. After thawing, all experiments were conducted within a maximum of 20 passages. To evaluate the cytotoxicity of the NP formulations a WST-1 assay (Roche Diagnostics, Mannheim, Germany) was conducted on Jurkat and hCMEC/D3 cell lines. Human macrophages and HUVECs were tested applying a XTT assay (Sigma-Aldrich Chemie GmbH, Munich, Germany). After seeding Jurkat and hCMEC/D3 cells in a 96 well plate at a density of 2×10^4 cells/well (hCMEC/D3 cells suspended in 100 μL, Jurkat cells suspended in 50 μL), they were cultured for 48 h with serum containing medium. […] After 30 min, the absorbance was measured again. […] The blank measurement was subtracted and the absorbances were correlated to the controls. […]

[2] = test system: Jurkat cells; test: WST-1 cytotoxicity assay, Jurkat; assay type: cell-based, human; details: 24 h incubation, highest concentration of range 0.5 to 250 μg/ml
Experimental: as §1

O=C(O)CN(CCN(CC(=O)O)CC(=O)O)CCN(CC(=O)O)CC(=O)O [DTPA, diethylenetriaminepentaacetic acid]
cell viability, hCMEC/D3 cells [1]: 78.4±6.9% | cell viability, Jurkat cells [2]: 73.0±6.6%

Reference: patent US20250325695A1, “NANOPARTICLE FOR USE IN A PROPHYLAXIS OR IN A TREATMENT OF A CALCIFICATION OF BRUCHS MEMBRANE AND DRUSEN” (Universität Münster, priority 2024, published 2025)
